Data reported in paper PMC7164622, “Citrate lyase CitE in Mycobacterium tuberculosis contributes to mycobacterial survival under hypoxic conditions” (PLoS ONE, 2020).

Experiments:
[1] = molecular target: T1, MtbCitE (CitE) (Mycobacterium tuberculosis, UniProt P9WPE1)
[2] = molecular target: T1, MtbCitE (CitE); remark: listed apart in the source
[3] = molecular target: the molecule itself; assay: cross-linking; chemical cross-linking with 4 μM disuccinimidyl suberate (DSS), 10 mM CitE protein (so in the source), 100 mM NaH2PO4 pH 8.0, 150 mM NaCl, room temperature, half an hour, then SDS-PAGE

Question: Which citrate cleavage activity [1] does the source give for `O=C(O)CC(O)(CC(=O)O)C(=O)O` [citrate] here?
Answer: The citrate cleavage activity was “we predicted that purified MtbCitE had citrate lyase activity”.

Question: For `Nc1ncnc2c1ncn2[C@@H]1O[C@H](COP(=O)(O)OP(=O)(O)OP(=O)(O)O)[C@@H](O)[C@H]1O` [ATP], which “activity with 0-1.5 mM ATP” value [2] is on record?
Answer: Its value is “the citrate cleavage activity of MtbCitE was inhibited by ATP”.

B1: Mycobacterium tuberculosis CitE (MtbCitE), citrate lyase (enzyme)
chain: MNLRAAGPGWLFCPADRPERFAKAAAAADVVILDLEDGVAEAQKPAARNALRDTPLDPERTVVRINAGGTADQARDLEALAGTAYTTVMLPKAESAAQVIELAPRDVIALVETARGAVCAAEIAAADPTVGMMWGAEDLIATLGGSSSRRADGAYRDVARHVRSTILLAASAFGRLALDAVHLDILDVEGLQEEARDAAAVGFDVTVCIHPSQIPVVRKAYRPSHEKLAWARRVLAASRSERGAFAFEGQMVDSPVLTHAETMLRRAGEATSE
notes: also called Rv2498c; citrate lyase β-subunit
Question: With B1 as the molecule, how does the “stoichiometry N” value [3] read?
Answer: Its value is 3.
